Measured values published in patent US9233921B2, “Potent poxvirus inhibitor” (priority 2013, dated 2016).
“Also recorded” adds a separate entry of the source. Where two headings read alike, the source gives them in different places.

Tests used:
vaccinia virus = assay: microbe, parasite or virus in culture; assay type: cell-based, Vaccinia virus (WR strain)
BSC-1 cells = assay: Cytotoxicity (CC50)
recombinant VACV (vL1Ri) = assay type: cell-based, vaccinia virus in BSC-1 cells
mD4-VV hybrid virus = assay: microbe, parasite or virus in culture; assay type: cell-based; settings: read-out: IC50 mD4-VV hybrid virus
Cytotoxicity (CC50) = settings: African green monkey, BSC-1 cells
[1] = Table 5, mean ± SEM of triplicates

Question: Which results are given for “6-Methyl-3-(phenylthio)-1H-indole-2-carboxylate [Compound 29]”?
Answer: IC50 (vaccinia virus; read-out: IC50 (antiviral)): 10 µM; CC50 (BSC-1 cells; read-out: CC50 (cytotoxicity), BSC-1 cells, NA = not active (assays requiring >200 μM)): 26 µM

Question: Which results are given for `Nc1ccn(C[C@@H](CO)OCP(=O)(O)O)c(=O)n1` [CDV, cidofovir]?
Answer: EGFP expression (late reporter gene) (recombinant VACV (vL1Ri)): equally effective at a higher dose; also recorded: clearly showed suppression of EGFP when pretreated; EGFP expression, compound added after virus adsorption (recombinant VACV (vL1Ri); 8 h): comparable EGFP expression and CPE to DMSO vehicle; also recorded: EGFP expression comparable to vehicle-treatment

Question: Which IC50 (mD4-VV hybrid virus) does the source give for `Cc1ccc2c(Sc3cc(Cl)cc(Cl)c3)c(CCC(N)=O)[nH]c2c1` [Compound 24a, 3-(3-((3,5-Dichlorophenyl)thio)-6-methyl-1H-indol-2-yl)propanamide] here?
Answer: 0.03 µM

Question: And the “SI (selectivity index = CC50/IC50)” value (vaccinia virus)?
Answer: 374

Question: And the IC50 (vaccinia virus; Orthopoxvirus vaccinia)?
Answer: 0.042 µM

Question: What about the CC50 (BSC-1 cells; [1]) of the same compound?
Answer: 16 ± 5 µM

Question: What about the “cytotoxicity within experimental time frame” value (BSC-1 cells; cells treated 9 h, FIG. 7A) of the same compound?
Answer: minimal cytotoxicity

Question: With `Cc1ccc2c(Sc3cc(Cl)cc(Cl)c3)c(CC(N)=O)[nH]c2c1` [Compound 24b, 2-(3-((3,5-Dichlorophenyl)thio)-6-methyl-1H-indol-2-yl)acetamide] as the compound, how does the IC50 (mD4-VV hybrid virus) read?
Answer: 0.097 µM

Question: And the “SI (selectivity index = CC50/IC50)” value (vaccinia virus)?
Answer: 570

Question: What about the IC50 (vaccinia virus; Orthopoxvirus vaccinia) of the same compound?
Answer: 0.046 µM

Question: And the CC50 (BSC-1 cells; [1])?
Answer: 26 ± 3 µM

Question: With `Cc1ccc2c(Sc3cc(Cl)cc(Cl)c3)c(CCCC(N)=O)[nH]c2c1` [Compound 24c, 4-(3-((3,5-Dichlorophenyl)thio)-6-methyl-1H-indol-2-yl)butanamide] as the compound, how does the IC50 (mD4-VV hybrid virus) read?
Answer: 0.199 µM

Question: And the “SI (selectivity index = CC50/IC50)” value (vaccinia virus)?
Answer: 115

Question: What about the “fold decrease in potency / loss of activity compared to 24a” value (vaccinia virus) of the same compound?
Answer: ~5 fold

Question: What about the IC50 (vaccinia virus; Orthopoxvirus vaccinia) of the same compound?
Answer: 0.208 µM

Question: What about the CC50 (Cytotoxicity (CC50)) of the same compound?
Answer: 243 ± 2 µM

Question: Which “SI (selectivity index = CC50/IC50)” value (vaccinia virus) does the source give for `Cc1ccc2c(Sc3cc(Cl)cc(Cl)c3)c(CCC(=O)O)[nH]c2c1` [Compound 24d, 3-(3-((3,5-Dichlorophenyl)thio)-6-methyl-1H-indol-2-yl)propanoic acid] here?
Answer: 152

Question: What about the “fold decrease in potency / loss of activity compared to 24a” value (vaccinia virus) of the same compound?
Answer: ~5 fold

Question: What about the IC50 (vaccinia virus; Orthopoxvirus vaccinia) of the same compound?
Answer: 0.244 µM

Question: And the CC50 (BSC-1 cells; [1])?
Answer: 36 ± 14 µM

Question: With `CCCCCCNC(=O)CCc1[nH]c2cc(C)ccc2c1Sc1cc(Cl)cc(Cl)c1` [Compound 24e, 3-(3-((3,5-Dichlorophenyl)thio)-6-methyl-1H-indol-2-yl)-N-hexylpropanamide] as the compound, how does the CC50 (BSC-1 cells; [1]) read?
Answer: 27 ± 4 µM

Question: What does the source list for `Cc1cccc2[nH]c(C(=O)O)c(Sc3cc(Cl)c(Cl)cc3Cl)c12` [Compound 30b, 4-Methyl-3-((2,4,5-trichlorophenyl)thio)-1H-indole-2-carboxylic acid]?
Answer: IC50 (vaccinia virus; Orthopoxvirus vaccinia, BSC-1, read-out: IC50 (antiviral)): 18 µM; CC50 (Cytotoxicity (CC50)): 65 µM
